Among the data in paper PMC9719519, “Non-classical ferroptosis inhibition by a small molecule targeting PHB2” (Nature Communications, 2022) are remaining activity values, retold here.

Assay in all cases: biochemical
Holding throughout (parameters): Eurofins recombinant human kinase profiling, remaining kinase activity as % of control, 10 uM ATP
What all share (settings): ATP 10 uM; read-out: %Ctrl@10 μM

One test concerns the target T1, A-Raf(h) (Homo sapiens, UniProt P10398).
T1 construct: gene ARAF
The text has this:
(§1) To rapidly determine the biological target of YL-939, we first tested the activity of YL-939 against a panel of 401 recombinant human protein kinases by using the kinase profiling assay provided by Eurofins, since kinases are often the key components in various signal pathways[35],[36]. […] We then carried out affinity-based proteome profiling assay (ABPP) coupled with bioimaging to identify the biological target of YL-939 (Fig. 4A). To this end, we designed and synthesized a photoaffinity probe, YL-939-1 (Fig. 4A and Supplementary Fig. 5), which is YL-939 attached by a photo-crosslinker (L3) that contains a photo-reactive group diazirine and a clickable alkyne handle.

A further test concerns the target T2, ALK6(h) (Homo sapiens, UniProt O00238).
T2 construct: gene BMPR1B
Excerpt: as §1

A further test addresses T3, ASK1(h) (Homo sapiens, UniProt Q99683).
T3 construct: gene MAP3K5
Excerpt: as §1

A further test deals with Axl(h) (Homo sapiens, UniProt P30530).
Axl(h), sequence (P30530 whole entry): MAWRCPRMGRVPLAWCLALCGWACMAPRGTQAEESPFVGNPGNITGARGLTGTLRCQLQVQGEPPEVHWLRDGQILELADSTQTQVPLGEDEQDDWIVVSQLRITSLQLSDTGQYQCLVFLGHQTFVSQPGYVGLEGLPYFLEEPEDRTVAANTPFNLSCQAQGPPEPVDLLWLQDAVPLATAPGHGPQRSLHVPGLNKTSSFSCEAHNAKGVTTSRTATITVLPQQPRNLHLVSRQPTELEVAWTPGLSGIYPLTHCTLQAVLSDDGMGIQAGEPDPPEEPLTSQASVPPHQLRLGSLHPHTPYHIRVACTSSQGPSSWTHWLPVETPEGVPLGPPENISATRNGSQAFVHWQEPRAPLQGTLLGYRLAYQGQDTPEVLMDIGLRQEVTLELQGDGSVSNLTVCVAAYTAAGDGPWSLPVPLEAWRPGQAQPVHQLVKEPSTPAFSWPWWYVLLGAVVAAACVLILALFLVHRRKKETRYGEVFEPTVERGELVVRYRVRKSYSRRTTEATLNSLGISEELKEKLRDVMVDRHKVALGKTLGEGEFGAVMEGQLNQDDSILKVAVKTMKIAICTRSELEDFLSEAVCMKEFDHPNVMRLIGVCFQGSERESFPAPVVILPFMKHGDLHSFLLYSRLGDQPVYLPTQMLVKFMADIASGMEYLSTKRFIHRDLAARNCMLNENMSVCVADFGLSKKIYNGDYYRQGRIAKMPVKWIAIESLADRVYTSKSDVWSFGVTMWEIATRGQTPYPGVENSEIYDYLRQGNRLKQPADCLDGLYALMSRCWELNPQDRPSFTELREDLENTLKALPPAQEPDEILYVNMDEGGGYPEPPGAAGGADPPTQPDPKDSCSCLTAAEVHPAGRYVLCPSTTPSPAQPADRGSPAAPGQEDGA
Excerpt: as §1

For another test, the target named is CDKL2(h) (Homo sapiens, UniProt Q92772).
Excerpt: as §1

The next test has as its target T4, CK1δ(h) (Homo sapiens, UniProt P48730).
T4 construct: gene CSNK1D
Excerpt: as §1

A further test addresses DAPK1(h) (Homo sapiens, UniProt P53355).
Excerpt: as §1

Another test has as its target EphA4(h) (Homo sapiens, UniProt P54764).
Excerpt: as §1

For the next test, the target named is Hck(h) activated (Homo sapiens, UniProt P08631).
Hck(h) activated, sequence (P08631 whole entry): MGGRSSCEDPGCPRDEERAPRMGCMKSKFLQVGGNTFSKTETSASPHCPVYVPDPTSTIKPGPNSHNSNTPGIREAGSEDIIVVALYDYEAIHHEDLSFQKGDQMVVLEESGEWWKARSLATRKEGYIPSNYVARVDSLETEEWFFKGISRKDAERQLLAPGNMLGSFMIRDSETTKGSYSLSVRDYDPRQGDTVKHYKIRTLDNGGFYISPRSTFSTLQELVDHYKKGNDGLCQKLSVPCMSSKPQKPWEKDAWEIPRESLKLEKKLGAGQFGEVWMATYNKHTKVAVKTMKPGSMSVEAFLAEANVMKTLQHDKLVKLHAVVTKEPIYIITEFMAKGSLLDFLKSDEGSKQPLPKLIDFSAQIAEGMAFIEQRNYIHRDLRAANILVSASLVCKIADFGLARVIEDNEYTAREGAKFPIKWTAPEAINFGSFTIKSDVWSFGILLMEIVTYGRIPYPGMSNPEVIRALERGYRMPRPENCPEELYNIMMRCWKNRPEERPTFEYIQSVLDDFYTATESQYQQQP
Excerpt: as §1

For the next test, the target named is JAK2(h) (Homo sapiens, UniProt O60674).
Excerpt: as §1

The next test addresses T5, LKB1(h) (Homo sapiens, UniProt Q15831).
T5 construct: gene STK11
Excerpt: as §1

The next test concerns the target Lyn(h) (Homo sapiens, UniProt P07948).
Excerpt: as §1

The target of a further test is T6, MLK3(h) (Homo sapiens, UniProt Q16584).
T6 construct: gene MAP3K11
T6 sequence (Q16584 whole entry): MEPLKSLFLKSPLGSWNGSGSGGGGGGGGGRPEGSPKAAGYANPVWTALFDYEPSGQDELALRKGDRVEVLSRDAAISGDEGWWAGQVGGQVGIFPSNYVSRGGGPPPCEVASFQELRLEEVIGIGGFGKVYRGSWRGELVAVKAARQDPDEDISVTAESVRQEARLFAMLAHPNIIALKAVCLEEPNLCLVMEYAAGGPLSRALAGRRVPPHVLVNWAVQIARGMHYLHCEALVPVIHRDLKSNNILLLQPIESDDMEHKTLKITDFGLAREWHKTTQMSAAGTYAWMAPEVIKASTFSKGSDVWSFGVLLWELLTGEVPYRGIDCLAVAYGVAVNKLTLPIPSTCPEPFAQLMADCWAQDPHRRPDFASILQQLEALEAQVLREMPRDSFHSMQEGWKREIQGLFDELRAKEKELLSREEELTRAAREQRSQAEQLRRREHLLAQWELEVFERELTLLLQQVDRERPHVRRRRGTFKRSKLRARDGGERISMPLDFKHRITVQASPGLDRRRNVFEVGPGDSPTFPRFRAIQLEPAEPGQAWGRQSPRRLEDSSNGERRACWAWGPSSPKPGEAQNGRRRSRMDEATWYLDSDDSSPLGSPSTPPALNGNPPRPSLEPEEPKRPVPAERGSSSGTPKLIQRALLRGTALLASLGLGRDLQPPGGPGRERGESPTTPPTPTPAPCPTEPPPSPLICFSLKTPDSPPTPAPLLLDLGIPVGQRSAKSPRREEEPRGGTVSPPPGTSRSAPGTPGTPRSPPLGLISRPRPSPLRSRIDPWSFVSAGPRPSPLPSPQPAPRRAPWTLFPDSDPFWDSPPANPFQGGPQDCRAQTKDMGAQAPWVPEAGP
Excerpt: as §1

For the next test, the target named is MYLK2(h) (Homo sapiens, UniProt Q9H1R3).
Excerpt: as §1

Another test deals with T7, Mer(h) (Homo sapiens, UniProt Q12866).
T7 construct: gene MERTK
Excerpt: as §1

Test [1] concerns the target T8, PI3 Kinase (p110(E545K)/p85)(h) (Homo sapiens, UniProt P42336, E545K).
T8 construct: gene PIK3CA
Excerpt: as §1

The target in a further test is T9, Pim-2(h) (Homo sapiens, UniProt Q9P1W9).
T9 construct: gene PIM2
T9 sequence (Q9P1W9 whole entry): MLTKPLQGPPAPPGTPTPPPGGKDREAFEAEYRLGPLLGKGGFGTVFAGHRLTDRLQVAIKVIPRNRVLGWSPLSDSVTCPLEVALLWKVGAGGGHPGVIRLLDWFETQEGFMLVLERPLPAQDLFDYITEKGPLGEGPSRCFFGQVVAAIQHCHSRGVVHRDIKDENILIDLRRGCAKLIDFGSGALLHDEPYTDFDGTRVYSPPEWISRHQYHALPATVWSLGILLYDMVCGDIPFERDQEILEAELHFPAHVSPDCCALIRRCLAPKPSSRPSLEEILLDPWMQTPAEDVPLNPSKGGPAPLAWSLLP
Excerpt: as §1

Another test has as its target RIPK2(h) (Homo sapiens, UniProt O43353).
Excerpt: as §1

The next test has as its target T10, SAPK2a(T106M)(h) (Homo sapiens, UniProt Q16539, T106M).
T10 construct: gene MAPK14
Excerpt: as §1

The next test addresses T11, SAPK2a(h) (Homo sapiens, UniProt Q16539).
T11 construct: gene MAPK14
Excerpt: as §1

The next test concerns the target STK32C(h) (Homo sapiens, UniProt Q86UX6).
Excerpt: as §1

For another test, the target named is TBK1(h) (Homo sapiens, UniProt Q9UHD2).
Excerpt: as §1

Another test addresses T12, eEF-2K(h) (Homo sapiens, UniProt O00418).
T12 construct: gene EEF2K
Excerpt: as §1

T11 sequence (Q16539 whole entry): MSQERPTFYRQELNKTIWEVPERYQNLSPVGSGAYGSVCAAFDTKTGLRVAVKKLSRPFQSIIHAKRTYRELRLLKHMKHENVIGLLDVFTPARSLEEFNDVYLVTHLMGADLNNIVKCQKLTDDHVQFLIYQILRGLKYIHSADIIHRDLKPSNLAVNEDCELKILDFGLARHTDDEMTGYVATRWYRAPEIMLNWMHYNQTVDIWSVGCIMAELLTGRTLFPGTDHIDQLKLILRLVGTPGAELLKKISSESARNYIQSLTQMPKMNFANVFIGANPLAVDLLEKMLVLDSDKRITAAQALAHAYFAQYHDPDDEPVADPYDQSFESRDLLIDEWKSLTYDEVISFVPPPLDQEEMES
T5 sequence (Q15831 whole entry): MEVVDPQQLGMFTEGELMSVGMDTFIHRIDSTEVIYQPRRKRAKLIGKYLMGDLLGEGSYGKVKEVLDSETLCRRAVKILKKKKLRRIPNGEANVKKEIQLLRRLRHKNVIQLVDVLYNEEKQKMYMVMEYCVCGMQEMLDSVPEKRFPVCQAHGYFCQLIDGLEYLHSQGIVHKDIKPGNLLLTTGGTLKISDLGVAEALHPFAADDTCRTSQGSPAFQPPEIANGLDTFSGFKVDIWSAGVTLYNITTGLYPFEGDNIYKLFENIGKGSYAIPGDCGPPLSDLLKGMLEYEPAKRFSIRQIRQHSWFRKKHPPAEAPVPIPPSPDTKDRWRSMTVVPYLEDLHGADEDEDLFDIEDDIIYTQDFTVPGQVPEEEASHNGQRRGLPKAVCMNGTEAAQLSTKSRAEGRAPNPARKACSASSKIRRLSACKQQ
T5 sequence (Q7RTN6 whole entry partner): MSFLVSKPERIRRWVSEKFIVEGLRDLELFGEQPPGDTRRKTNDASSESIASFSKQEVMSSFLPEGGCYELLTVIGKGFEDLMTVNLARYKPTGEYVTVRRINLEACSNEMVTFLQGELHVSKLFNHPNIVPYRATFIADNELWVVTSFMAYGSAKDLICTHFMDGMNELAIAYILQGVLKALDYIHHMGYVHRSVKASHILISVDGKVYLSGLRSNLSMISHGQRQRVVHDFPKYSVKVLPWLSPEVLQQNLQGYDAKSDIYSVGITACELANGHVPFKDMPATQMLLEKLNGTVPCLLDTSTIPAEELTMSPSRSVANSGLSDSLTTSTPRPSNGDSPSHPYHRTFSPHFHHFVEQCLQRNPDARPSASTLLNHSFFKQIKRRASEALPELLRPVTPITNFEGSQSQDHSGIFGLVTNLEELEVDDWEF
T5 sequence (Q9Y376 whole entry partner): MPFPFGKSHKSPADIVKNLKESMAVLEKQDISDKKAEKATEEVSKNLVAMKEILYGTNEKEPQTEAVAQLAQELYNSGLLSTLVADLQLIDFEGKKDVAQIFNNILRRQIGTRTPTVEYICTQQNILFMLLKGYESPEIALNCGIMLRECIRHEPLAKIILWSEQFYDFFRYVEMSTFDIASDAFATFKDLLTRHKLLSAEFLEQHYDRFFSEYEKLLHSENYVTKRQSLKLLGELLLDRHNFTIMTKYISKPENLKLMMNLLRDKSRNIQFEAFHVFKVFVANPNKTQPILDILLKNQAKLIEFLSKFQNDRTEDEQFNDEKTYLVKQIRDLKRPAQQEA
RIPK2(h), sequence (O43353 whole entry): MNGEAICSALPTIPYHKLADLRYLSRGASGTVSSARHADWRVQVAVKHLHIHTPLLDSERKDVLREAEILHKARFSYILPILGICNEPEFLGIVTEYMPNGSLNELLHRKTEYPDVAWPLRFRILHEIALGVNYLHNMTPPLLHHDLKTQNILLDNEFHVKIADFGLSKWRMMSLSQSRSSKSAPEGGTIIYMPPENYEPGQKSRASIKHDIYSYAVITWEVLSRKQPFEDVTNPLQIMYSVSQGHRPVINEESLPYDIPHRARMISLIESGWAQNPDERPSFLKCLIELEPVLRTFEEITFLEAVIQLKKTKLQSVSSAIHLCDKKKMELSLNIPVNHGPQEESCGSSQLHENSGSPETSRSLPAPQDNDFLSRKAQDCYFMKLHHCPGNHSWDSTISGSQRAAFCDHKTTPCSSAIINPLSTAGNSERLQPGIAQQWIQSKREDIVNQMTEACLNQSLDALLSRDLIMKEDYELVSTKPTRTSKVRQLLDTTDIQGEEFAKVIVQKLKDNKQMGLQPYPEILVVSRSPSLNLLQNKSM
T10 sequence (Q16539 whole entry T106M): as the sequence (Q16539 whole entry) above, with T106M counted along it

Take `C1=C(c2nc(-c3cnn(C4CCNCC4)c3)cn3cc(-c4ccccc4)nc23)CCOC1` [YL-939]: the remaining activity at 10 µM at A-Raf(h) came to 83%; at ALK6(h), 105%; at ASK1(h), 110%; on Axl(h), 84%; at CDKL2(h) it was 74%; at CK1δ(h), 111%. For the same compound, the remaining activity at 10 µM came out at 82% on DAPK1(h); 89% on EphA4(h); 105% at Hck(h) activated; 90% at JAK2(h); 87% at LKB1(h); 95% at Lyn(h). In addition, the remaining activity at 10 µM was found to be 111% at MLK3(h); 52% on MYLK2(h); 78% at Mer(h); 95% in [1]; 84% at Pim-2(h); 71% on RIPK2(h). Moreover, the remaining activity at 10 µM on SAPK2a(T106M)(h) stood at 105%; at SAPK2a(h), 103%; on STK32C(h) it was 82%; on TBK1(h), 90%; at eEF-2K(h), 93%.
